Source: patent US20090320869A1, “METHODS FOR PREVENTING REVERSION OF RELAXED KERATINOUS FIBERS AND FOR RELAXING KERATINOUS FIBERS” (L'Oreal, S.A.,, priority 2003, published 2009)

What was measured:
Parameters in all cases: species or system human
[1] = Percent straightening / reversion of hair relaxed with 2.5% sodium hydroxide, D-xylose post-treatment and heat (Example 1); details: for % Reversion / % Straightening: flat iron five strokes 130° C., 24 at 90% RH (25° C.)
Protocol: Virgin African-American (kinky) hair was processed and 2.5% sodium hydroxide for 20 min at room temperature. Next, the sodium hydroxide solution was washed off, the swatch was profusely rinsed with tepid water, and the treatment solution was applied for 5 min at room temperature. The treatment solutions included: water; 1% D-xylose; and 5% D-xylose. Next, the swatch was briefly rinsed to remove an excess of the treatment solution from the hair surface, blow-dried, and heat was applied in the form of five strokes with a flat iron (130° C.). The heat-treated swatch was rinsed with tepid water, air-dried at 50% RH (25° C.), and maintained for 24 at 90% RH (25° C.). The percent hair straightening (“% straightening”) was determined as follows: [formula] The percent reversion (“% reversion”)=100%−(% straightening)

[2] = Effect of pH of D-xylose solutions on hair relaxed with 2.0% sodium hydroxide (Example 3); details: for % Reversion / % Straightening: 2.0% NaOH + 5% D-Xylose, flat iron 1 min 130° C., 24 h at 90% RH
Protocol: [formula] The percent reversion (“% reversion”)=100%−(% straightening) Virgin African-American (kinky) hair was processed with 2.0% sodium hydroxide for 20 min at room. Next, the sodium hydroxide solution was washed off, the swatch was profusely rinsed with tepid water, and the treatment solution was applied for 10 min at 45° C. The treatment solutions included: buffer solution, pH 2.0; buffer solution, pH 6.0; buffer solution, pH 10.0; 5% D-xylose, pH 2.0; 5% D-xylose, pH 6.5; and 5% D-xylose, pH 10. The solutions were buffered using phosphoric acid and sodium hydroxide. Next, the swatch was briefly rinsed to remove an excess of the treatment solution from the hair surface, blow-dried, and heat was applied in the form of a flat iron for 1 min. (130° C.). The heat-treated swatch was rinsed with tepid water, air-dried at 50% RH (25° C.), and maintained for 24 h at 90% RH (25° C.). The percent hair straightening was determined as in Example 1.

[3] = Percent straightening / reversion of hair relaxed with various concentrations of sodium hydroxide, D-xylose post-treatment and heat (Example 2); details: for % Reversion / % Straightening: flat iron 1 min 130° C., 24 h at 90% RH
Protocol: [formula] The percent reversion (“% reversion”)=100%−(% straightening) Virgin African-American (kinky) hair was processed with different concentrations of sodium hydroxide for 20 min at room temperature: 1.0%, 1.5%, 2.0%, and 2.5% NaOH, respectively. Next, the sodium hydroxide solution was washed off, the swatch was profusely rinsed with tepid water, and the treatment solution was applied for 5 min at room temperature. The treatment solutions included water and 5% D-xylose. Next, the swatch was briefly rinsed to remove an excess of the treatment solution from the hair surface, blow-dried, and heat was applied in the form of a flat iron for 1 min (130° C.). The heat-treated swatch was rinsed with tepid water, air-dried at 50% RH (25° C.), and maintained for 24 h at 90% RH (25° C.). The percent hair straightening was determined as in Example 1.

[4] = Effect of D-xylose on hair relaxed with a commercial thioglycolate relaxer (Example 5); details: for % Reversion / % Straightening: flat iron 30 sec 175° C., 1 h at 100% RH
Protocol: [formula] The percent reversion (“% reversion”)=100%−(% straightening) Virgin African-American (kinky) hair was processed with a commercial thioglycolate cream relaxer as follows. The thioglycolate cream relaxer was applied to a swatch of kinky hair for 15 min at room temperature (reduced hair). Next, the thioglycolate cream was washed off, the swatch was profusely rinsed with tepid water, and a hydrogen peroxide cream was applied for 5 min. The treatment solutions included: water and 5% D-xylose. The treatment solutions were applied either between the rinsing of the thioglycolate cream relaxer and the application of the hydrogen peroxide cream, or after the application of the hydrogen peroxide cream, respectively. The treatment solutions was applied for 5 min at room temperature. Next, the swatch was briefly rinsed to remove an excess of the treatment solution from the hair surface, blow-dried, and heat was applied in the form of a flat iron for 30 sec (175° C.). The heat-treated swatch was rinsed with tepid water, air-dried at 50% RH (25° C.), and maintained for 1 h at 100% RH (25° C.). The percent hair straightening was determined as in Example 1.

[5] = Effect of D-xylose concentration on hair relaxed with a commercial alkali relaxer (Example 4); details: for % Reversion / % Straightening: flat iron 1 min 175° C., 1 h at 100% RH
Protocol: [formula] The percent reversion (“% reversion”)=100%−(% straightening) Virgin African-American (kinky) hair was processed with an alkali relaxer as follows. The commercial cream relaxer was applied to a swatch of hair for 10 min at room temperature. Next, the cream was washed off, the swatch was profusely rinsed with tepid water, and the treatment solution was applied for 5 min. The treatment solutions included water; 1% D-xylose; 3% D-xylose; and 5% D-xylose. Next, the swatch was briefly rinsed to remove an excess of the treatment solution from the hair surface, blow-dried, and heat was applied in the form of a flat iron for 1 min (175° C.). The heat-treated swatch was rinsed with tepid water, air-dried at 50% RH (25° C.), and maintained for 1 h at 100% RH (25° C.). The percent hair straightening was determined as in Example 1.

[6] = 2.5% NaOH 20 min + 1% D-Xylose 5 min
[7] = 2.5% NaOH 20 min + 5% D-Xylose 5 min
[8] = thioglycolate reduced hair + 5% D-Xylose, then hydrogen peroxide
[9] = thioglycolate reduced hair + hydrogen peroxide, then 5% D-Xylose
[10] = commercial alkali cream relaxer 10 min + 1% D-Xylose 5 min
[11] = commercial alkali cream relaxer 10 min + 3% D-Xylose 5 min
[12] = commercial alkali cream relaxer 10 min + 5% D-Xylose 5 min

In the case of `O=C[C@H](O)[C@@H](O)[C@H](O)CO` [D-Xylose, D-xylose], the “% Reversion” value [1, 6] is reported as 7.2%, the “% Straightening” value [1, 6] is reported as 92.8% and the “% Reversion” value [1, 7] is reported as 0%. For the same compound, the “% Straightening” value [1, 7] was 100%, the “curl reversion in relaxed kinky hair (in words)” value ([1]; post-treatment with a D-xylose solution, hair relaxed with 2.5% NaOH) was “prevented curl reversion” and the “% Reversion” value ([2]; pH 2.0, 10 min at 45° C.) was 20.0%. For the same compound, the “% Straightening” value ([2]; pH 2.0, 10 min at 45° C.) was 80.0%, the “% Reversion” value ([2]; pH 6.5, 10 min at 45° C.) was 10.0% and the “% Straightening” value ([2]; pH 6.5, 10 min at 45° C.) was 90.0%. For the same compound, the “% Reversion” value ([2]; pH 10.0, 10 min at 45° C.) was 0.00%, the “% Straightening” value ([2]; pH 10.0, 10 min at 45° C.) was 100% and the “reversion of relaxed hair (in words)” value ([2]; post-treatment with a D-Xylose solution vs buffer solution at various pH values) was “prevented reversion of the relaxed hair better than post-treatment with a buffer solution”. For the same compound, the “% Reversion” value ([3]; 1.0% NaOH + 5% D-Xylose) was 42.9%, the “% Straightening” value ([3]; 1.0% NaOH + 5% D-Xylose) was 57.1% and the “% Reversion” value ([3]; 1.5% NaOH + 5% D-Xylose) was 21.4%. For the same compound, the “% Straightening” value ([3]; 1.5% NaOH + 5% D-Xylose) was 78.6%, the “% Reversion” value ([3]; 2.0% NaOH + 5% D-Xylose) was 0% and the “% Straightening” value ([3]; 2.0% NaOH + 5% D-Xylose) was 100%. The “% Reversion” value ([3]; 2.5% NaOH + 5% D-Xylose) was 0%, the “% Straightening” value ([3]; 2.5% NaOH + 5% D-Xylose) was 100% and the “curl reversion in relaxed kinky hair (in words)” value ([3]; post-treatment with a D-xylose solution vs water, 1.0-2.5% NaOH) was “prevented curl reversion in the relaxed kinky hair better than post-treatment with water”. For the same compound, the “reversion of relaxed hair (in words)” value ([4]; post-treatment with a D-xylose solution, thioglycolate hair relaxer) was “prevented reversion”, the “% Reversion” value [4, 8] was 0.00% and the “% Straightening” value [4, 8] was 100%. The “% Reversion” value [4, 9] was 14.0%, the “% Straightening” value [4, 9] was 86.0% and the “% Reversion” value [5, 10] was 30.9%. For the same compound, the “% Straightening” value [5, 10] was 69.1%, the “% Reversion” value [5, 11] was 24.0% and the “% Straightening” value [5, 11] was 76.0%. The “% Reversion” value [5, 12] was 22.0%, the “% Straightening” value [5, 12] was 78.0% and the “reversion of relaxed hair (in words)” value ([5]; post-treatment with various concentrations of D-xylose vs water, commercial alkali relaxer) was “prevented reversion of the relaxed hair”.
